Results: PubChem BioAssay (NCI)
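Cells were grown in 96-well plates and exposed to each compound for 48 hours at five concentrations; endpoints were interpolated linearly between bracketing concentrations, or set to the highest concentration if not reached. Abbreviation: GI50, concentration required for 50% inhibition of growth. The concentration for full growth arrest is given as TGI.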

What was measured:
Assay in all cases: NCI anticancer screen, dose series, 48 h
COLO 205 colon = tested on: COLO 205 colon
HCT-15 colon = tested on: HCT-15 colon
HL-60(TB) leukemia = tested on: HL-60(TB) leukemia
M14 melanoma = tested on: M14 melanoma
OVCAR-4 ovarian = tested on: OVCAR-4 ovarian
SNB-19 CNS = tested on: SNB-19 CNS
SNB-75 CNS = tested on: SNB-75 CNS
U251 CNS = tested on: U251 CNS
MDA-MB-231 breast = tested on: MDA-MB-231 breast
T-47D breast = tested on: T-47D breast

| SMILES | TGI (COLO 205 colon) | TGI (HCT-15 colon) | TGI (HL-60(TB) leukemia) | TGI (M14 melanoma) | TGI (OVCAR-4 ovarian) | TGI (SNB-19 CNS) | TGI (SNB-75 CNS) | TGI (U251 CNS) | GI50 (OVCAR-4 ovarian) | GI50 (COLO 205 colon) | GI50 (HCT-15 colon) | GI50 (HL-60(TB) leukemia) | GI50 (M14 melanoma) | GI50 (MDA-MB-231 breast) | TGI (MDA-MB-231 breast) | GI50 (SNB-19 CNS) | GI50 (SNB-75 CNS) | GI50 (U251 CNS) | TGI (T-47D breast) | GI50 (T-47D breast) |
| --- | --- | --- | --- | --- | --- | --- | --- | --- | --- | --- | --- | --- | --- | --- | --- | --- | --- | --- | --- | --- |
| COC/C=C\COC | > 100 µM | > 100 µM | > 100 µM | > 100 µM | > 100 µM | > 100 µM | > 100 µM | > 100 µM |  |  |  |  |  |  |  |  |  |  |  |  |
| C=C(CC(NC(=O)c1ccc(C(CC)Cc2cnc3nc(N)nc(N)c3n2)cc1)C(=O)O)C(=O)O (stereo not drawn) | > 100 µM | > 100 µM | > 100 µM | > 100 µM | > 100 µM | > 100 µM | > 100 µM | > 100 µM | > 100 µM |  |  |  |  |  |  |  |  |  |  |  |
| O=c1c2cc(F)ccc2sc2c(N3CCNCC3)nc3ccc(F)cc3c12 | 4.72 µM | 2.84 µM | 3.94 µM | 3.66 µM | 3.48 µM | 3.2 µM | 2.82 µM |  | 1.83 µM | 2.15 µM | 1.44 µM | 2.05 µM | 1.94 µM | 1.42 µM | 2.79 µM | 1.69 µM | 1.42 µM |  |  |  |
| CCC[CH2][Sn]([Cl])([Cl])[CH2]CCC | 3.2 µM | 2.24 µM | 1.02 µM | 2.78 µM | 2.78 µM | 2.17 µM | 2.28 µM | 1.62 µM | 1.4 µM | 1.15 µM | 0.738 µM | 0.275 µM | 1.14 µM |  |  | 0.948 µM | 0.894 µM | 0.472 µM |  |  |
| Cc1ccc(NC(=O)CCc2nc(N)nc(N)c2-c2ccccc2)cc1C | > 100 µM | > 100 µM | > 100 µM | > 100 µM | > 100 µM | > 100 µM | > 100 µM | > 100 µM |  |  |  |  |  |  |  |  |  |  |  |  |
| COc1ccc(OC)c(NC(=O)CCC/C(CC(=O)c2ccc(O)c(OC)c2)=N\Nc2nnc(C)n2N)c1 | > 100 µM | > 100 µM | > 100 µM | > 100 µM | > 100 µM | > 100 µM | > 100 µM | > 100 µM |  |  |  |  |  |  |  |  |  |  |  |  |
| COC(=O)C1C(O)CCC2CN3CCc4c([nH]c5ccccc45)C3CC21 (stereo not drawn) | > 100 µM | > 100 µM |  | > 100 µM | > 100 µM | > 100 µM | > 100 µM | > 100 µM | > 100 µM |  |  |  |  |  | > 100 µM | > 100 µM |  |  | > 100 µM |  |
| CC(C)(C)c1cc(C(O)(C(F)(F)F)C(F)(F)F)c2c(c1)C(C(F)(F)F)(C(F)(F)F)OC(C)(C(C)(C)C)N2 (stereo not drawn) | 4.02 µM | 14.5 µM |  | 13.6 µM | > 100 µM | > 100 µM | 8.96 µM | 10.9 µM |  |  |  |  |  |  |  |  |  |  |  |  |
| Cc1[nH]nc(C(F)(F)F)c1N=NN(C)C | 10.7 µM | 24.4 µM | 42.9 µM | 29.7 µM |  | 28.8 µM |  | 36.5 µM |  |  |  |  |  |  | 25.4 µM |  |  |  | > 100 µM |  |
| COc1ccc2c(=O)cc(-c3ccccc3)[nH]c2c1 | 1.55 µM | > 100 µM | 1.19 µM | > 100 µM | > 100 µM | > 100 µM | > 100 µM | > 100 µM | 3.28 µM | 0.364 µM | 0.518 µM | 0.256 µM | 5.93 µM | 1.92 µM | > 100 µM | 1.75 µM |  | 0.707 µM |  |  |
| CCc1ccc(NC(=O)NC(=O)c2ccccc2[N+](=O)[O-])cc1Oc1ncc(Cl)cn1 | 0.106 µM | > 100 µM | 0.0247 µM | > 100 µM | > 100 µM | > 100 µM |  | > 100 µM |  |  |  |  |  |  | 52.3 µM |  |  |  |  |  |
| CCOC(=O)C(=O)Nc1ccccc1C | > 100 µM | > 100 µM | > 100 µM | > 100 µM | > 100 µM | > 100 µM | > 100 µM | > 100 µM |  |  |  |  |  |  |  |  |  |  |  |  |
| CCOC(=O)c1cc2cc3c4c(c2oc1=O)CCCN4CCC3 | 57.1 µM | > 100 µM | 45.8 µM | > 100 µM | > 100 µM | > 100 µM |  | > 100 µM |  |  |  |  |  |  | 69.2 µM |  |  |  | 53.6 µM |  |
| O=C(/C=C/C12c3ccccc3C(c3ccccc31)C1C(=O)NC(=O)C12)c1ccc(Cl)cc1Cl (stereo not drawn) | 4.24 µM | 4.57 µM |  | 3.54 µM | 3.82 µM | 3.03 µM | 3.08 µM | 3.06 µM | 1.86 µM | 2.2 µM | 1.9 µM |  | 1.83 µM | 2.31 µM | 5.82 µM | 1.62 µM | 1.64 µM | 1.68 µM | 9.59 µM | 2.48 µM |
| O=C1c2ccccc2-[n+]2ccc3c([nH]c4ccccc43)c21 | 0.498 µM | > 100 µM | 1.38 µM | 0.365 µM | 2.02 µM | 2.27 µM | 1.93 µM | 1.47 µM |  |  |  |  |  |  |  |  |  |  | 3.52 µM |  |
| CC(Oc1ccc2c(-c3ccccc3)cc(=O)oc2c1)C(=O)O (stereo not drawn) | > 100 µM |  | > 100 µM | > 100 µM | > 100 µM | > 100 µM | > 100 µM | > 100 µM |  |  |  |  |  |  |  |  |  |  |  |  |
| O=C(Cc1nc2ccccc2c(=O)n1-c1ccccc1Cl)c1ccncc1 | > 100 µM | > 100 µM | > 100 µM | > 100 µM | > 100 µM | > 100 µM | 71.7 µM | > 100 µM |  |  |  |  |  |  |  |  |  |  |  |  |
| CCC(=O)c1c(NOC2OCC(OC(C)=O)C(OC(C)=O)C2OC(C)=O)nc(OC)n(C)c1=O (stereo not drawn) | > 100 µM | > 100 µM | > 100 µM | > 100 µM | > 100 µM | > 100 µM | > 100 µM | > 100 µM |  |  |  |  |  |  |  |  |  |  |  |  |
| COc1ccc(NC(=O)CC2SC(=Nc3ccccc3C)NC2=O)c([N+](=O)[O-])c1 (stereo not drawn) | > 100 µM | > 100 µM | > 100 µM | > 100 µM | > 100 µM | > 100 µM | > 100 µM | > 100 µM |  |  |  |  |  |  |  |  |  |  |  |  |
| COc1ccc(NC(=O)/C(=C/c2ccccc2)C(C)=O)cc1 | 35.7 µM | 40.8 µM | 17.7 µM | 27.1 µM | 24.6 µM | 33.4 µM | 21 µM | 29.4 µM |  |  |  |  |  |  |  |  |  |  |  |  |
| COC(=O)/C=C(C)/C=C/C1OC(C)OCC1O (stereo not drawn) | > 100 µM | > 100 µM | > 100 µM | > 100 µM | > 100 µM | > 100 µM |  | > 100 µM |  |  |  |  |  |  |  |  |  |  |  |  |
| O=C(CCC(=O)Nc1ccc(Cl)c(Cl)c1)CC(=O)c1ccc(Br)cc1 | > 100 µM | > 100 µM |  | > 100 µM | > 100 µM | > 100 µM | > 100 µM | > 100 µM |  |  |  |  |  |  |  |  |  |  |  |  |
